This passage reports CC50, EC50 and Reduction results from ChEMBL document CHEMBL1150489, “Increase of the anti-HIV activity of D4T in human T-cell culture by the use of the sate pronucleotide approach” (Bioorg Med Chem Lett, 1995).

The structures appear in SMILES notation. Bounds are passed on as bounds.

In test [1] the test system is CEM-SS. Description: (§1) Tested in vitro for the antiviral activity in CEM-SS cells infected with HIV-1. Particulars: Homo sapiens. Type of test: functional.
Test [2] concerns MT4. Briefly: (§2) Tested in vitro for the antiviral activity in MT-4 cells infected with HIV-1. Type of test: functional. Particulars: Homo sapiens.
Test [3] is described as follows: (§3) Tested in vitro for the antiviral activity in PBM cells infected with HIV-1. Type of test: functional. Particulars: Homo sapiens, PBMC.
Test [4] concerns CEM-TK(-). Briefly: (§4) Tested in vitro for the antiviral activity in CEM/TK- cells infected with HIV-1. Type of test: functional. To be noted: Homo sapiens.
The subject of test [5] is CEM-TK(-). Described as §4. Type of test: functional, cell-based. Particulars: Homo sapiens.
In test [6] the test system is MT4. The description is as §2. Type of test: functional, cell-based. Particulars: Homo sapiens.
Test [7] deals with MT4. The description is as §2. Type of test: functional, Homo sapiens.
Test [8] in a line: as §3. Type of test: functional, cell-based. To be noted: Homo sapiens, PBMC.
In test [9] the test system is CEM-SS. The test is described as §1. Particulars: Homo sapiens. Type of test: functional, cell-based.
Test [10] concerns CEM-SS. Described as §1. Type of test: functional, Homo sapiens.
For test [11], the system named is CEM-TK(-). The test is described as §4. Type of test: functional, Homo sapiens.

The CC50 is the concentration that lowers cell viability or growth by half. Low values mean harm at low concentration, high ones better tolerance by the cells. As usually defined, the EC50 is the concentration at which the effect is half-maximal. A higher EC50 goes with lower potency in that assay. Turning to `CC(=O)SCCOP(=O)(OCCSC(C)=O)OCC1C=CC(n2cc(C)c(=O)[nH]c2=O)O1` (stereo not given), the CC50 was 68 µM in test [1], more than 100 µM in test [2], 22 µM in [3] and 60 µM in [4]. Moreover, the concentration for a half-maximal effect (EC50) in [5] amounted to 0.012 µM; in test [6] it was 0.016 µM; in test [8], 0.007 µM; in test [9] it was 0.006 µM. This molecule gave a Reduction in [7] of 19%.
For the molecule `Cc1cn([C@H]2C=C[C@@H](CO)O2)c(=O)[nH]c1=O` [STAVUDINE], the CC50 in test [1] is more than 100 µM; in test [2] it was more than 100 µM; in [3], 42 µM; in [4], more than 100 µM. The Reduction in [10] was 21%; in test [11], 6%; in [7], 10%. Further, the EC50 in test [5] came out at 10 µM; in test [6] it was 0.28 µM; in [8], 0.05 µM; in [9] it was 0.059 µM.
